Measured values: patent publication US5235045A, “Non-azo naphthalimide dyes” (priority 1992, dated 1993)
Where two headings read alike, the source gives them in different places.

Experiments:
H9 cells [1] = test: Dye-mediated light kill of H9 cells (trypan blue); assay type: cell-based; conditions: Homo sapiens, read-out: Percent Viability
Method: Photoinduced killing of H9 cells with Compound 1b as the mediator of photochemical toxicity were carried out according to the following protocol:
Compound 1b was added to the H9 cells (5×10^5 /ml) in medium or 100% human plasma to give dye concentrations of 0, 25 and 100 μM (1 control, 2 duplicates of both non-azo dye samples). Two 2-ml aliquots of each of the duplicated dye samples was irradiated with 10J/cm^2 total energy of 450±35 nm wavelength light in a sealed 3-ml test tube. Immediately after irradiation, the cells were centrifuged at 450×g for 10 minutes, and the pellets resuspended in the original volume of fresh RPMI-1640+10% FCS+gentamycin. The cell suspensions were transferred to a 12-well TC plate and placed in a 37° C. 5% CO2 incubator. Cell viability counts (trypan blue) were carried out at 4, 24, 48, and 72 hours post irradiation. The results of these experiments are summarized in Tables 7 (medium) and 8 (100% human plasma).
Photoinduced killing of H9 cells with Compound VII as the mediator of photochemical toxicity were carried out in 10% FCS medium according to the same general protocol using concentrations of the dye at 0, 5, 25 and 100 μM., and irradiating at 420±5 nm at 10J/cm^2 total energy.

[2] = Cell viability in absence of light (trypan blue exclusion); assay type: cell-based, human; conditions: dark
From the text: (§1) Following the protocol of (1), above, H9 cells were stained with Compound lb, and the technique of fluorescent microscopy was used to determine visually the sites of localization of dye fluorescence in living cells. Specifically, H9 cells were counted with a hemocytometer and diluted to 5×10^5 /ml. […] Cytospin slides of the cell suspensions were made and they were examined with the fluorescence microscope (Olympus AH-2) using B excitation plus a 460 nm interference excitation filter and a 495 nm emission filter. The cells were also counted with a hemocytometer and their viability determined (see below). […] The former may reflect the diffusional component of the dye incorporation, or may reflect binding in the ER membrane. The latter may indicate lysosomal localization of pinocytosed dye as occurs with Lucifer Yellow.
(§2) Cell viability was determined using dye incorporated according to the protocol directly above. Viability was determined using a trypan blue dye exclusion test in which "live" cells with competent cell membranes exclude the dye. Table 5 summarizes the data obtained using cells exposed to Compound 1b in culture medium, and Table 6 summarizes data obtained using cells exposed to Compound VII.

H9 cells [3] = test: as above; assay type: cell-based, human; conditions: dark
From the text: as §1, §2

Vero cells = test: Cellular toxicity in Vero cells (viral-medium suspension samples); assay type: cell-based
Method: (§3) Each sample including the stock virus were assayed on Vero cells for PFU/ml of HSV-1. The assay consisted of growing Vero cells in minimal essential medium with Hanks balanced salt solution supplemented with 10% fetal bovine serum, L-glutamine and antibiotics. Hepes buffer (2%) was added for growth in open plates (twelve well microplates from CO-star). Ten fold dilutions of each sample were prepared and 0.1 ml of the appropriate dilution for each individual sample was adsorbed at 37° C. for 1.5 hr. on a cell monolayer from which the growth medium had been removed. After the adsorption period, the cell monolayer was washed and an overlay consisting of equal volumes of 2X strength L-15 medium and 2% methylcellulose was added. Following an appropriate incubation time at 37° C. (about 4 days), the overlay medium was removed. Monolayers were fixed with methanol and stained with giemsa to elaborate the presence of plaques. The plaques were counted using a dissecting microscope at a magnification of 20X.
as §3, with “Co-star).” for “CO-star).”

[4] = H9, 4 h, no hν, 10% FCS medium, 4 hours
[5] = H9, 4 h, no hν, 100% human plasma, 4 hours
[6] = H9, 24 h, no hν, 10% FCS medium, 24 hours
[7] = H9, 24 h, no hν, 100% human plasma, 24 hours
[8] = H9, 48 h, no hν, 10% FCS medium, 48 hours
[9] = H9, 48 h, no hν, 100% human plasma, 48 hours
[10] = H9, 72 h, no hν, 10% FCS medium, 72 hours
[11] = H9, 72 h, no hν, 100% human plasma, 72 hours
[12] = H9, light or radiation study, 4 h, hν 10J/cm^2, 450±35 nm, 10% FCS medium, 4 hours
[13] = H9, light or radiation study, 4 h, hν 10J/cm^2, 450±35 nm, 100% human plasma, 4 hours
[14] = H9, light or radiation study, 24 h, hν 10J/cm^2, 450±35 nm, 10% FCS medium, 24 hours
[15] = H9, light or radiation study, 24 h, hν 10J/cm^2, 450±35 nm, 100% human plasma, 24 hours
[16] = H9, light or radiation study, 48 h, hν 10J/cm^2, 450±35 nm, 10% FCS medium, 48 hours
[17] = H9, light or radiation study, 48 h, hν 10J/cm^2, 450±35 nm, 100% human plasma, 48 hours
[18] = H9, light or radiation study, 72 h, hν 10J/cm^2, 450±35 nm, 10% FCS medium, 72 hours
[19] = H9, light or radiation study, 72 h, hν 10J/cm^2, 450±35 nm, 100% human plasma, 72 hours
[20] = 5 μM, medium 1.5 hours, counted 2.5 hours after
[21] = 25 μM, medium 1.5 hours, counted 2.5 hours after
[22] = H9, light or radiation study, 4 h, hν 420±5 nm 10J/cm^2, 10% FCS medium, 4 hours
[23] = 1 μM, 100% human plasma 4 hours, 1 hour after
[24] = 5 μM, 100% human plasma 4 hours, 1 hour after
[25] = 25 μM, 100% human plasma 4 hours, 1 hour after
[26] = 1 μM, medium 24 hours, 1 hour after
[27] = 10 μM, medium 24 hours, 1 hour after
[28] = 25 μM, medium 24 hours, 1 hour after
[29] = 50 μM, medium 24 hours, 1 hour after

## CCCCCCNc1ccc2c3c(cccc13)C(=O)N(CCCCCC)C2=O [Compound 1b, 4-(hexyl)amino-N-hexyl-1,8-naphthalimide]
H9 cells [1]; [4]
  viability at 25 µM: 96.9%
  viability at 100 µM: 94.6%
H9 cells [1]; [5]
  viability at 25 µM: 97.2%
  viability at 100 µM: 99.2%
H9 cells [1]; [6]
  viability at 25 µM: 94.8%
  viability at 100 µM: 94.6%
H9 cells [1]; [7]
  viability at 25 µM: 93.4%
  viability at 100 µM: 94.3%
H9 cells [1]; [8]
  viability at 25 µM: 90.5%
  viability at 100 µM: 91.3%
H9 cells [1]; [9]
  viability at 25 µM: 86.4%
  viability at 100 µM: 90.7%
H9 cells [1]; [10]
  viability at 25 µM: 91.4%
  viability at 100 µM: 85.1%
H9 cells [1]; [11]
  viability at 25 µM: 85%
  viability at 100 µM: 87.4%
H9 cells [1]; [12]
  viability at 25 µM: 62.8%
  viability at 100 µM: 87.2%
H9 cells [1]; [13]
  viability at 25 µM: 97.9%
  viability at 100 µM: 97.4%
H9 cells [1]; [14]
  viability at 25 µM: 8.4%
  viability at 100 µM: 52%
H9 cells [1]; [15]
  viability at 25 µM: 94.4%
  viability at 100 µM: 92.4%
H9 cells [1]; [16]
  viability at 25 µM: 10%
  viability at 100 µM: 64.8%
H9 cells [1]; [17]
  viability at 25 µM: 86.5%
  viability at 100 µM: 92.6%
H9 cells [1]; [18]
  viability at 25 µM: 30.6%
  viability at 100 µM: 71.4%
H9 cells [1]; [19]
  viability at 25 µM: 90.2%
  viability at 100 µM: 88.2%
[2]; human, 5 μM, medium 1.5 hours, counted 2.5 hours after
  viability at 1.5 h, 5 µM: 96.7%
[2]; human, 25 μM, medium 1.5 hours, counted 2.5 hours after
  viability at 1.5 h, 25 µM: 97.1%
H9 cells [3]; [20]
  dead cells: 4
  live cells: 116
H9 cells [3]; [21]
  dead cells: 4
  live cells: 136

## CCCCCCNc1c(Br)cc2c3c(cccc13)C(=O)N(CCCCCC)C2=O [Compound VII, 3-bromo-4-(hexyl)amino-N-hexyl-1,8-naphthalimide]
H9 cells [1]; [4]
  viability at 5 µM: 86.5%
H9 cells [1]; H9, 4 h, no hν, 10% FCS medium, 4 hours (Table 9)
  viability at 25 µM: 90%
H9 cells [1]; [22]
  viability at 5 µM: 0%
  viability at 25 µM: 0%
H9 cells [1]; H9, light or radiation study, 4 h, hν 420±5 nm 10J/cm^2, 10% FCS medium, 4 hours, light reached only approximately 2 mm
  viability at 100 µM: 1.8%
Vero cells; Ed6Br, 8 concentrations, not irradiated
  cellular toxicity: no evidence of cellular toxicity
Vero cells; two concentrations, vs irradiated samples
  cellular toxicity of not previously irradiated samples: significantly less cellular toxicity than the irradiated samples
[2]; [23]
  viability at 4 h, 1 µM: 95.9%
[2]; [24]
  viability at 4 h, 5 µM: 94.7%
[2]; [25]
  viability at 4 h, 25 µM: 95.5%
[2]; human, 1 μM, medium 24 hours, 1 hour after
  viability at 24 h, 1 µM: 86.8%
[2]; human, 10 μM, medium 24 hours, 1 hour after
  viability at 24 h, 10 µM: 80%
[2]; human, 25 μM, medium 24 hours, 1 hour after
  viability at 24 h, 25 µM: 79.6%
[2]; human, 50 μM, medium 24 hours, 1 hour after
  viability at 24 h, 50 µM: 42.5%
H9 cells [3]; [23]
  dead cells: 12
  live cells: 280
H9 cells [3]; [26]
  dead cells: 23
  live cells: 151
H9 cells [3]; [24]
  dead cells: 16
  live cells: 286
H9 cells [3]; [27]
  dead cells: 26
  live cells: 104
H9 cells [3]; [25]
  dead cells: 16
  live cells: 339
H9 cells [3]; [28]
  dead cells: 38
  live cells: 148
H9 cells [3]; [29]
  dead cells: 128
  live cells: 124

## CCCCCCN1C(=O)c2cccc3c(NCCNC(=O)CCCCC(=O)NCCNc4c(Br)cc5c6c(cccc46)C(=O)N(CCCCCC)C5=O)c(Br)cc(c23)C1=O [Compound XLIV]
Vero cells; DiEd6Br, 2 concentrations, not irradiated (Table 18 experiment)
  cellular toxicity: no evidence of cellular toxicity
Vero cells; DiEd6Br, 8 concentrations, not irradiated (Table 15 experiment)
  cellular toxicity: no evidence of cellular toxicity
Vero cells; DiEd6Br, 8 concentrations, not irradiated (Table 16 experiment)
  cellular toxicity: no evidence of cellular toxicity
